# Measured values taken from patent US20110201084A1, “ENZYMATIC HYDROLYSIS OF CELLULOSIC BIOMASS THROUGH ENHANCED REMOVAL OF OLIGOMERS” (THE REGENTS OF THE UNIVERSITY OF CALIFORNIA, priority 2008, published 2011).
# How the values were obtained:
# cellulase [1] = experiment: Effect of xylose oligomer chain length on Avicel glucan initial hydrolysis rate; format: biochemical
# Excerpt: FIG. 9 depicts the effect of xylose oligomer chain length on Avicel glucan initial hydrolysis rate at a cellulase loading of thirty FPU/g glucan and CBU to FPU activity ration of two.
# Furthermore, these xylooligomers have been found in the liquor from pretreatment prior to enzymatic hydrolysis, with the amounts depending upon the type of pretreatment, substrate, and substrate loading. Furthermore, such xylooligomers can slow glucose and xylose release. […] In accordance with an aspect of the disclosure, 12.5 mg/ml (eighty mM xylose equivalent) of xylose, 6.6 mg/ml (forty-six mM xylose equivalent) and 16.6 mg/ml (one-hundred seventeen mM xylose equivalent) of xylobiose, and 6.6 mg/ml (forty-eight mM xylose equivalent) of xylotriose were added to two ml centrifuge tubes containing thirty mg of commercial grade cellulose in 1.5 ml of liquid at a cellulase loading of thirty FPU/g glucan, and initial hydrolysis rates were measured. Xylose alone at this concentration inhibited yields by about ten percent, but about half as much xylobiose, forty-six mM of xylose equivalent, reduced glucose release by eighteen percent. Furthermore, glucose release dropped by about thirty-two percent at a higher xylobiose loading of one-hundred seventeen mM of xylose equivalent. Adding almost half of the xylose concentration and about the same as the lower concentration of xylobiose, xylotriose (forty-eight mM xylose equivalent) reduced glucose release even more, by about twenty-four percent.
# cellulase [2] = experiment: Hydrolysis of Avicel cellulose with added birch wood xylan, xylose and β-xylosidase; format: biochemical; conditions: xylose equivalent to 1% (w/v) xylan mixed with Avicel; 7.5 FPU/g glucan; 4 h rate
# Protocol: Avicel+xylan−1% (w/v) each, Avicel+xylose−xylose equivalent to 1% (w/v) xylan. b-xylosidase loading was 28 mg/g glucan. Error bars represent the standard deviation.
# Hydrolysis of one percent (w/w) commercial grade cellulose with an equal mass of birch wood xylan [approximately eighty-six percent xylan] was performed in triplicate at a cellulase plus β-glucosidase loading of 16.1 mg/glucan. Hydrolysis was also performed at a similar cellulase loading but supplemented with β-xylosidase at a loading of 14 mg/g glucan. To evaluate the effect of xylose alone on cellulose hydrolysis, cellulose containing an equivalent amount of xylose (1.053*amount of xylan) was enzymatically hydrolyzed in parallel. Controlled experiments for cellulose hydrolysis without xylan, cellulose with β-xylosidase only, and a substrate blank containing cellulose plus xylan were run in parallel. Samples were collected four, twenty-four, forty-eight, and seventy-two hours after initiation of hydrolysis and analyzed for sugars. Liquids produced by seventy-two hours of hydrolysis of samples containing xylan were post hydrolyzed to determine the amount of xylooligomers as described herein.
# Referring now to FIG. 5, an aspect of the disclosure is the addition of β-xylosidase to effect hydrolysis of cellulose. […]
# The concentration of xylose in the hydrolyzate was measured to be 5.5 g/l. […]
smiles,measurement,setting,value
OC1OC[C@@H](O[C@@H]2OC[C@@H](O)[C@H](O)[C@H]2O)[C@H](O)[C@H]1O (some centres unmarked) [xylobiose],reduction of glucose release (Avicel initial hydrolysis),"cellulase [1]; xylobiose 6.6 mg/ml (forty-six mM xylose equivalent), thirty FPU/g glucan",eighteen
same,reduction of glucose release (Avicel initial hydrolysis),"cellulase [1]; xylobiose 16.6 mg/ml (one-hundred seventeen mM xylose equivalent), thirty FPU/g glucan",about thirty-two
O=C[C@H](O)[C@@H](O)[C@H](O)CO [xylose],reduction of glucose release (Avicel initial hydrolysis),"cellulase [1]; xylose 12.5 mg/ml (eighty mM xylose equivalent), cellulase thirty FPU/g glucan",about ten
same,inhibition of enzyme action,cellulase [2],12%
OC1OC[C@@H](O[C@@H]2OC[C@@H](O[C@@H]3OC[C@@H](O)[C@H](O)[C@H]3O)[C@H](O)[C@H]2O)[C@H](O)[C@H]1O (some centres unmarked) [xylotriose],reduction of glucose release (Avicel initial hydrolysis),"cellulase [1]; xylotriose 6.6 mg/ml (forty-eight mM xylose equivalent), thirty FPU/g glucan",about twenty-four
